Data from US10280149B2, “Therapeutic compounds and uses thereof” (GENENTECH, INC., priority 2015, dated 2019).
pIC50: −log10 of the molar value.

Target: Full length KDM2B (Homo sapiens (Human), UniProt Q8NHM5)
Assay: KDM2B TR-FRET assay for determining inhibitor IC50
Format: biochemical
Conditions: TR-FRET (HTRF), biotin-H3K36me2 peptide substrate, 2-OG 0.3 μM or 6 μM
Text: KDM2B TR-FRET Assay for Determining Inhibitor IC50
The KDM2B TR-FRET Assay described above represents an additional embodiment of the invention.

Full length KDM2B, sequence (Q8NHM5 whole entry): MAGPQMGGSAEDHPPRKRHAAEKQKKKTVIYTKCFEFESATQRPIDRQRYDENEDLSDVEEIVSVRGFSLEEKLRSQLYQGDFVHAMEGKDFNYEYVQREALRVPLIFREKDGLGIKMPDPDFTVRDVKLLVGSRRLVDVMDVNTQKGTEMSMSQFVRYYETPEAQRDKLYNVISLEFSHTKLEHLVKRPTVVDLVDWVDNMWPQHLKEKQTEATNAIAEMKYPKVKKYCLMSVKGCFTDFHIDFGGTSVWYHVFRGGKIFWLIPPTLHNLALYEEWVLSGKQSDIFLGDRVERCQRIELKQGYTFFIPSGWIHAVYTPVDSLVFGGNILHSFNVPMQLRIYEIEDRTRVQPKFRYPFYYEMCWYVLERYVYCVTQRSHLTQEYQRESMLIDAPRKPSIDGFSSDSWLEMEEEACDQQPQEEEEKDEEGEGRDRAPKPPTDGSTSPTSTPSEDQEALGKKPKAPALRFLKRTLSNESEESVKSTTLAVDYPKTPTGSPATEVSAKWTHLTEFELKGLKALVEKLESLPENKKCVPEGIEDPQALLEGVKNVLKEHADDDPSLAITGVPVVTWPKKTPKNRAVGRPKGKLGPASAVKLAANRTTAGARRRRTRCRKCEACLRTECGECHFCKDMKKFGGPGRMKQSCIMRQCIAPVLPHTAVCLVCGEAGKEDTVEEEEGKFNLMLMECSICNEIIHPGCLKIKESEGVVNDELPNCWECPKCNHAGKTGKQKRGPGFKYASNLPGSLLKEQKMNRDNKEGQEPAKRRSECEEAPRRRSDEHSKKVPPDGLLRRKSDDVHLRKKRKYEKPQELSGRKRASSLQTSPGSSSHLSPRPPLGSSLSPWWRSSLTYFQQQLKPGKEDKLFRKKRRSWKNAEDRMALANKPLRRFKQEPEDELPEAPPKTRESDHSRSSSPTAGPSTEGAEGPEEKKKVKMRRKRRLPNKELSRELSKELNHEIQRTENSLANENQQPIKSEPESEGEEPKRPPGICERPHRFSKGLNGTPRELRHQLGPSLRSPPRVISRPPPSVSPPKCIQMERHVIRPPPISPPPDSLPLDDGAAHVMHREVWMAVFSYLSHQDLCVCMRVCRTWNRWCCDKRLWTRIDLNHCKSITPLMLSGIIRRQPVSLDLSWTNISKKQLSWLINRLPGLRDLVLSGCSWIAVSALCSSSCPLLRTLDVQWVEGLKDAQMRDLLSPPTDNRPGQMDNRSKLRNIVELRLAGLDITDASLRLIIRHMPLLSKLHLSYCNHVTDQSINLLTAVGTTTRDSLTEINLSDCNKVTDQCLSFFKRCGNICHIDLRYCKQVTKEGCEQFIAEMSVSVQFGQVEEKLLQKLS

| SMILES | pIC50 |
| --- | --- |
| COc1ccc2cc(C(=O)[C@@H]3CN(C4CCC4)CC[C@@H]3c3ccccc3)ccc2c1 (single isomer, unassigned) [Example 141a, (1-cyclobutyl-4-phenylpiperidin-3-yl)(6-methoxynaphthalen-2-yl)methanone] | 6.00 |
| COc1ccc2cc(C(=O)C3CN(C4CCC4)CCC3c3ccccc3)ccc2c1 (single isomer, unassigned) [Example 141b, (1-cyclobutyl-4-phenylpiperidin-3-yl)(6-methoxynaphthalen-2-yl)methanone] | 7.01 |
| CC[C@@H]1CCN(C2CCC2)C[C@H]1C(=O)c1ccc2cc(OC)ccc2c1 (single isomer, unassigned) [Example 142a, (1-cyclobutyl-4-ethylpiperidin-3-yl)(6-methoxynaphthalen-2-yl)methanone] | 7.94 |
| CCC1CCN(C2CCC2)CC1C(=O)c1ccc2cc(OC)ccc2c1 (single isomer, unassigned) [Example 142b, (1-cyclobutyl-4-ethylpiperidin-3-yl)(6-methoxynaphthalen-2-yl)methanone] | 6.46 |
| CCC1CCN(C2CCC2)CC1C(=O)c1ccc2cc(OC)ccc2c1 (single isomer, unassigned) [Example 142c, (1-cyclobutyl-4-ethylpiperidin-3-yl)(6-methoxynaphthalen-2-yl)methanone] | 6.68 |
| CCC1CCN(C2CCC2)CC1C(=O)c1ccc2cc(OC)ccc2c1 (single isomer, unassigned) [Example 142d, (1-cyclobutyl-4-ethylpiperidin-3-yl)(6-methoxynaphthalen-2-yl)methanone] | 8.18 |
| COc1ccc2cc(C(=O)[C@@H]3CN(C4CCC4)CC[C@@H]3C(C)C)ccc2c1 (single isomer, unassigned) [Example 143a, (1-cyclobutyl-4-isopropylpiperidin-3-yl)(6-methoxynaphthalen-2-yl)methanone] | 6.20 |
| COc1ccc2cc(C(=O)[C@H]3CN(C4CCC4)CC[C@H]3C(C)C)ccc2c1 (single isomer, unassigned) [Example 143b, (1-cyclobutyl-4-isopropylpiperidin-3-yl)(6-methoxynaphthalen-2-yl)methanone] | 7.80 |
| COc1ccc2cc(C(=O)[C@@H]3CN(C4CCC4)CC[C@@H]3CC(C)C)ccc2c1 (single isomer, unassigned) [Example 144a, (1-cyclobutyl-4-isobutylpiperidin-3-yl)(6-methoxynaphthalen-2-yl)methanone] | 8.25 |
| COc1ccc2cc(C(=O)C3CN(C4CCC4)CCC3CC(C)C)ccc2c1 (single isomer, unassigned) [Example 144b, (1-cyclobutyl-4-isobutylpiperidin-3-yl)(6-methoxynaphthalen-2-yl)methanone] | 6.57 |
| COc1ccc2cc(C(=O)C3CN(CC4CC4)CCC3OC)ccc2c1 (single isomer, unassigned) [Example 146a, (1-(cyclopropylmethyl)-4-methoxypiperidin-3-yl)(6-methoxynaphthalen-2-yl)methanone] | 6.42 |
| COc1ccc2cc(C(=O)C3CN(CC4CC4)CCC3OC)ccc2c1 (single isomer, unassigned) [Example 146b, (1-(cyclopropylmethyl)-4-methoxypiperidin-3-yl)(6-methoxynaphthalen-2-yl)methanone] | 6.89 |
| CCC1CCN(C2CC2)CC1C(=O)c1ccc2cc(OC)ccc2c1 (single isomer, unassigned) [Example 147a, (1-cyclopropyl-4-ethylpiperidin-3-yl)(6-methoxynaphthalen-2-yl)methanone] | 5.70 |
| CCC1CCN(C2CC2)CC1C(=O)c1ccc2cc(OC)ccc2c1 (single isomer, unassigned) [Example 147b, (1-cyclopropyl-4-ethylpiperidin-3-yl)(6-methoxynaphthalen-2-yl)methanone] | 8.31 |
| CC1CCN(CC2CC2)CC1C(=O)c1ccc2c(O)cccc2c1 (single isomer, unassigned) [Example 151a, (1-(cyclopropylmethyl)-4-methylpiperidin-3-yl)(5-hydroxynaphthalen-2-yl)methanone] | 6.50 |
